# Like-named read-outs stand apart in the source and are kept apart here. Marks after values point to notes of the source that are not given here.
# Tests used:
# [1] = molecular target: KPC-38 (Klebsiella pneumoniae, UniProt Q9F663); format: biochemical; conditions: read-out: Ki app; KPC-38, class A; 30 min preincubation; n.d.: too low inhibitor activity at 100 µmol/L
# Experimental: (§1) After stirring, the resultants were preincubated for 30 minutes at 37°C. The reporter substrate solution was incubated at 37°C for 15 minutes or more, dispensed at 100 µL/well, and measured for a change in absorbance by a microplate reader at 37°C. For each measured concentration of the positive control and the inhibitor, an initial rate (µmol/L/sec) was determined from a time to be analyzed and a change in product amount. […] Ki,app for each inhibitor concentration was calculated from the slope, the inhibitor concentration, an enzyme concentration, Km, and kcat using Expression 2. If the initial rate was determined at two or more concentrations for each inhibitor and a plurality of Ki,app could be obtained, an average value was used as the Ki,app for the inhibitor. t−tc = Km /Vmax x ([Inhibitor]/Ki,app)x Ln[S]0 /[S] [formula] Ki,app = [Inhibitor]x Km /(kcatx[Enzyme])x 1/slope [formula]
# (§2) The experiment was performed in duplicate.
# [2] = molecular target: PDC-11 (Pseudomonas aeruginosa, UniProt P24735, form not given, species not given); format: biochemical; conditions: PDC-11, class C; 30 min preincubation; n.d.: too low inhibitor activity at 100 µmol/L; read-out: Ki app
# Experimental: as §1, §2
# [3] = molecular target: SHV-12 (Klebsiella pneumoniae, UniProt P0A3M1, L31Q); experiment: Ki,app against β-lactamase (Example 1, Table 1); format: biochemical; conditions: SHV-12, class A; 30 min preincubation; n.d.: too low inhibitor activity at 100 µmol/L
# Experimental: as §1, §2
# [4] = molecular target: CTX-M-14 (Escherichia coli, UniProt Q9L5C7); experiment: Ki,app against β-lactamase (Example 1, Table 1); format: biochemical; conditions: CTX-M-14, class A; 30 min preincubation; n.d.: too low inhibitor activity at 100 µmol/L
# Experimental: as §1, §2
# [5] = molecular target: KPC-2 (Klebsiella pneumoniae, UniProt Q9F663); experiment: Ki,app against β-lactamase (Example 1, Table 1); format: biochemical
# Experimental: as §1, §2
# [6] = molecular target: CTX-M-27 (Escherichia coli, UniProt Q840M4); experiment: Ki,app against β-lactamase (Example 1, Table 1); format: biochemical; conditions: CTX-M-27, class A; 30 min preincubation; n.d.: too low inhibitor activity at 100 µmol/L
# Experimental: as §1, §2
# [7] = molecular target: KPC-3 (Klebsiella pneumoniae, UniProt Q9F663, H272Y); experiment: biochemical; format: biochemical
# Experimental: as §1, §2
# [8] = molecular target: KPC-31 (Klebsiella pneumoniae, UniProt Q9F663, D178Y/H272Y); experiment: biochemical
# Experimental: as §1, §2
# [9] = molecular target: KPC-6 (Klebsiella pneumoniae, UniProt Q9F663, V239G); experiment: biochemical
# Experimental: as §1, §2
# [10] = molecular target: KPC-8 (Klebsiella pneumoniae, UniProt Q9F663, H272Y/V239G); experiment: biochemical
# Experimental: as §1, §2
# [11] = molecular target: KPC-33 (Klebsiella pneumoniae, UniProt Q9F663, D178Y); experiment: biochemical
# Experimental: as §1, §2
# [12] = molecular target: OXA-24 (Acinetobacter baumannii, UniProt Q8RLA6); experiment: Ki,app against β-lactamase (Example 1, Table 1); format: biochemical; conditions: OXA-24, class D; 30 min preincubation; n.d.: too low inhibitor activity at 100 µmol/L
# Experimental: as §1, §2
# [13] = tested on: anaerobic bacteria; conditions: cited from earlier work
# [14] = tested on: anaerobic bacteria; experiment: microbe, parasite or virus in culture; format: cell-based
# [15] = molecular target: OXA-66 (Acinetobacter baumannii, UniProt Q58XD2); experiment: Ki,app against β-lactamase (Example 1, Table 1); format: biochemical; conditions: OXA-66, class D; 30 min preincubation; n.d.: too low inhibitor activity at 100 µmol/L
# Experimental: as §1, §2
# [16] = molecular target: OXA-65 (Acinetobacter baumannii, UniProt Q58XD3); experiment: Ki,app against β-lactamase (Example 1, Table 1); format: biochemical; conditions: OXA-65, class D; 30 min preincubation; n.d.: too low inhibitor activity at 100 µmol/L
# Experimental: as §1, §2
# [17] = molecular target: OXA-72 (Acinetobacter baumannii, UniProt Q5XQU0); experiment: Ki,app against β-lactamase (Example 1, Table 1); format: biochemical; conditions: OXA-72, class D; 30 min preincubation; n.d.: too low inhibitor activity at 100 µmol/L; *: value from one of three experiments
# Experimental: as §1, §2
# [18] = molecular target: OXA-48 (Klebsiella pneumoniae, UniProt Q6XEC0); experiment: Ki,app against β-lactamase (Example 1, Table 1); format: biochemical
# Experimental: as §1, §2
# [19] = molecular target: OXA-23 (Acinetobacter baumannii, UniProt Q9L4P2); experiment: Ki,app against β-lactamase (Example 1, Table 1); format: biochemical
# Experimental: as §1, §2
# [20] = KPC-2, class A, 30 min preincubation, n.d.: too low inhibitor activity at 100 µmol/L, read-out: Ki app
# [21] = KPC-3, class A, 30 min preincubation, n.d.: too low inhibitor activity at 100 µmol/L, read-out: Ki app
smiles,measurement,setting,value
"O=C(O)C[C@@H]1CC[C@H](NC(=O)Cc2cccs2)B(O)O1 [Vaborbactam, vaborbactam]",Ki,[1],48.3 nM
same,Ki,[2],3860 ± 163 nM
same,Ki,[3],755 ± 103 nM
same,Ki,[4],392 ± 20.3 nM
same,Ki,[5]; [20],63.7 nM
same,Ki,[6],351 ± 28.7 nM
same,Ki,[7]; [21],88.3 ± 30.3 nM
same,Ki,[8],13300 ± 8590 nM
same,Ki,[9],109 ± 21.7 nM
same,Ki,[10],114 ± 22.1 nM
same,Ki,[11],4600 ± 437 nM
"C[C@]1(Cn2ccnn2)[C@H](C(=O)O)N2C(=O)C[C@H]2S1(=O)=O [Tazobactam, tazobactam]",Ki,[1],112 ± 14.5 nM
same,Ki,[12],100 ± 45.6 nM
same,Ki,[5]; [20],159 nM
same,Ki,[7]; [21],270 ± 80.8 nM
same,Ki,[9],79.9 ± 16.5 nM
same,Ki,[10],52 ± 11.8 nM
Cc1ncc([N+](=O)[O-])n1CCO [MNZ],Acceptable MIC range of quality control (QC) strain,[13]; Bacteroides fragilis ATCC 25285 (QC strain),1 (0.25 to 1)* µg/mL
same,Acceptable MIC range of quality control (QC) strain,[13]; Bacteroides thetaiotaomicron ATCC 29741 (QC strain),2 (0.5 to 2)* µg/mL
same,MIC,"[14]; ATCC29328, Finegoldia magna ATCC 29328, read-out: MIC",2 µg/mL
same,MIC,"[14]; ATCC43055, Eggerthella lenta ATCC 43055, read-out: MIC",1 µg/mL
same,MIC,"[14]; ATCC43255, Clostridioides difficile ATCC 43255, read-out: MIC",1 µg/mL
same,MIC,"[14]; ATCCBAA1803, Clostridioides difficile ATCC BAA-1803, read-out: MIC",2 µg/mL
same,MIC,"[14]; ATCCBAA1870, Clostridioides difficile ATCC BAA-1870, read-out: MIC",1 µg/mL
same,MIC,"[14]; Bacteroides fragilis, ATCC25285",1 µg/mL
same,MIC,[14]; Bacteroides ovatus,1 µg/mL
same,MIC,"[14]; Bacteroides thetaiotaomicron KUB2984, read-out: MIC",1 µg/mL
same,MIC,"[14]; Bacteroides thetaiotaomicron, ATCC29741",2 µg/mL
same,MIC,"[14]; Clostridium perfringens, ATCC13124",2 µg/mL
same,MIC,"[14]; Cutibacterium acnes, ATCC11827",> 64 µg/mL
same,MIC,"[14]; Fusobacterium nucleatum, ATCC25586",≤ 0.125 µg/mL
same,MIC,"[14]; Fusobacterium varium, ATCC27725",0.5 µg/mL
same,MIC,[14]; Lancefieldella rimae,1 µg/mL
same,MIC,[14]; Olsenella uli,4 µg/mL
same,MIC,"[14]; Parvimonas micra KUB3000, read-out: MIC",0.5 µg/mL
same,MIC,"[14]; Peptoniphilus asaccharolyticus, ATCC14963",1 µg/mL
same,MIC,"[14]; Peptostreptococcus anaerobius, ATCC27337",0.5 µg/mL
same,MIC,[14]; Prevotella histicola,2 µg/mL
same,MIC,[14]; Prevotella intermedia,1 µg/mL
same,MIC,[14]; Prevotella melaninogenica,1 µg/mL
same,MIC,"[14]; Schaalia odontolytica, ATCC17929",> 64 µg/mL
same,MIC,[14]; Segatella buccae,2 µg/mL
"NC(=O)[C@@H]1CC[C@@H]2CN1C(=O)N2OS(=O)(=O)O [Avibactam, avibactam]",Ki,[15],7350 ± 963 nM
same,Ki,[16],5900 ± 1050 nM
same,Ki,[17],691 ± 63.8 nM
"O=C(O)[C@H]1/C(=C/CO)O[C@@H]2CC(=O)N21 [Clavulanate, clavulanate]",Ki,[1],78.2 ± 20.5 nM
same,Ki,[5],76.7 ± 38.3 nM
same,Ki,"[18]; OXA-48, class D, 30 min preincubation, n.d.: too low inhibitor activity at 100 µmol/L, read-out: Ki app",103 ± 36.5 nM
same,Ki,[19],394 ± 169 nM
same,Ki,[7],128 ± 53.2 nM
"CC1(C)[C@H](C(=O)O)N2C(=O)C[C@H]2S1(=O)=O [Sulbactam, sulbactam]",Ki,[1],405 ± 99.6 nM
same,Ki,[5],420 ± 99.2 nM
same,Ki,[18],264 ± 116 nM
same,Ki,[19],681 ± 74.3 nM
same,Ki,[7],674 ± 239 nM
